{"source": "patent US20240131044A1", "about": "“METHOD FOR TREATING CANCER” (M.T.3, Inc., priority 2022, published 2024)", "key": {"V79 cells": {"test_system": "V79 cells", "test": "Colony formation, survival fraction of V79 cells", "format": "cell-based, Chinese hamsters", "procedure": "(§1) An anti-cancer agent and a pharmaceutical composition were administered to test cells and then the cells were cultured. Then, after colonies were formed, the number of colonies was counted. Here, samples in which the concentration of the anti-cancer agent to be administered was varied were prepared, and in each sample, the survival fraction of the cells compared with the case where cells were cultured without administration of the pharmaceutical composition was measured. Regarding the type of anti-cancer agent to be administered, a predetermined anti-cancer agent was selected depending on the type of administration target cells. Note that cells that were cultured without administration of the pharmaceutical composition and the anti-cancer agent were used as a control. Hereinafter, these steps will be described.\n(§2) Here, CHO cells, V79 cells, and canine-derived cancer cells were prepared as the test cells. The CHO cells are ovarian cells derived from Chinese hamsters, and the V79 cells are fibroblasts derived from the lungs of Chinese hamsters. Melanoma developing cells (CML6M) and soft tissue sarcoma developing cells (STSA-1) were used as the cancer cells.\n(§3) The cancer cells were prepared by being cultured using an αMEM culture medium supplemented with 10% serum and an antibiotic. The cancer cells were prepared such that, when the concentration of the cells in a cell suspension obtained by subjecting the cultured cells to PBS washing and trypsin treatment, the concentration was within a predetermined concentration range. Here, the predetermined concentration ranges were 300 cells/well, 100 to 150 cells/well, and 500 to 1000 cells/well for the CHO/V79 cells, the melanoma cells, and the soft tissue sarcoma cells, respectively.\n(§4) Next, the cancer cells were cultured in culture environments to which the anti-cancer agent was added at various concentrations, and were then allowed to form colonies. The culture periods for colony formation were a week, 10 days, and 14 days for CHO and V79, melanoma, and soft tissue sarcoma, respectively. After colonies were formed, washing using a physiological saline solution, fixation using 100% ethanol, and staining using 0.1% crystal violet were performed, and then the number of colonies per well was counted under a microscope. Note that, here, the colony was defined as containing 50 or more cells. […]\nA graph with the horizontal axis representing the concentration of the anti-cancer agent and the vertical axis representing the survival fraction was created by plotting the survival fraction measurement results relative to the SQAP administration amounts, and the effect of the addition of SQAP on the survival fraction was examined. Hereinafter, the results from each anti-cancer agent will be shown in a table and described. […]\nV79 cells were used as the cells, and cisplatin was used as the anti-cancer agent. The cisplatin was administered at concentrations of 0 μg/mL, 0.1 μg/mL, 0.2 μg/mL, 0.3 μg/mL, 0.4 μg/mL, and 0.5 μg/mL.\nV79 cells were used as the cells, and camptothecin was used as the anti-cancer agent. The amount of the camptothecin was set to 0 nM, 5 nM, 10 nM, 15 nM, and 20 nM.\nV79 cells were used as the cells, and mitomycin C was used as the anti-cancer agent. The amount of MMC was set to 0 nM, 100 nM, 200 nM, 300 nM, 400 nM, and 500 nM. […]\nV79 cells were used as the cells, and taxol was used as the anti-cancer agent. The amount of the taxol was set to 0 nM, 10 nM, 20 nM, and 30 nM.\nV79 cells were used as the cells, and MMS was used as the anti-cancer agent. The amount of the MMS was set to 0 μM, 10 μM, 20 μM, 30 μM, and 40 μM.\n(§5) In the above examples, the anti-cancer agent and the pharmaceutical composition were administered to the test cells and then the cells were cultured. […]"}, "[1]": {"test_system": "Melanoma developing cells (CML6M)", "test": "Colony formation, survival fraction of canine melanoma cells", "format": "cell-based", "procedure": "as §1, §2, §3\nNext, the cancer cells were cultured in culture environments to which the anti-cancer agent was added at various concentrations, and were then allowed to form colonies. The culture periods for colony formation were a week, 10 days, and 14 days for CHO and V79, melanoma, and soft tissue sarcoma, respectively. After colonies were formed, washing using a physiological saline solution, fixation using 100% ethanol, and staining using 0.1% crystal violet were performed, and then the number of colonies per well was counted under a microscope. Note that, here, the colony was defined as containing 50 or more cells. Moreover, mitomycin C, doxorubicin, bleomycin, camptothecin, etoposide, taxol, methyl methanesulfonate, and cisplatin were used as the anti-cancer agent.\nA graph with the horizontal axis representing the concentration of the anti-cancer agent and the vertical axis representing the survival fraction was created by plotting the survival fraction measurement results relative to the SQAP administration amounts, and the effect of the addition of SQAP on the survival fraction was examined. Hereinafter, the results from each anti-cancer agent will be shown in a table and described.\nCanine-derived melanoma cells and soft tissue sarcoma cells were used as the cells, and doxorubicin was used as the anti-cancer agent. […] Also, the concentration of the doxorubicin administered to the soft tissue sarcoma cells was set to 0 nM, 5 nM, 10 nM, and 15 nM. […] In Table 2, survival fractions in the case where SQAP was not administered are shown with a solid line, survival fractions in the case where SQAP was administered at a concentration of 10 μM are shown with a broken line, survival fractions in the case where SQAP was administered at a concentration of 20 μM are shown with a 1-dot chain line, and survival fractions in the case where SQAP was administered at a concentration of 30 μM are shown with a 2-dot chain line.\nas §5"}, "CHO cells": {"test_system": "CHO cells", "test": "Colony formation, survival fraction of CHO cells", "format": "cell-based, Chinese hamsters", "procedure": "as §1, §2, §3, §4\nIn the above examples, the anti-cancer agent and the pharmaceutical composition were administered to the test cells and then the cells were cultured. In this example, test cells were cultured after administering pharmaceutical composition (SQAP) alone without administering the anti-cancer agent to the test cells, and then the number of colonies was counted after colonies were formed. […]"}}}
{"smiles": "CCCCCCCCCCCCCCCCCC(=O)OCCCO[C@H]1O[C@H](CS(=O)(=O)O)[C@@H](O)[C@H](O)[C@H]1O", "note": "[SQAP, sulfoquinovosylacylpropanediol]", "values": [{"measurement": "survival fraction", "setting": "V79 cells; MMS 40 μM + SQAP 10 μM", "result": "about 7%"}, {"measurement": "survival fraction", "setting": "V79 cells; MMS 40 μM + SQAP 20 μM", "result": "less than 1%"}, {"measurement": "survival fraction", "setting": "V79 cells; SQAP 10 μM alone", "result": 10, "unit": "%"}, {"measurement": "survival fraction", "setting": "V79 cells; SQAP 20 μM alone", "result": 10, "unit": "%"}, {"measurement": "survival fraction of cells after culture, SQAP and anti-cancer agent in combination compared with SQAP alone", "setting": "V79 cells; any anti-cancer agent of the examples", "result": "decreased"}, {"measurement": "survival fraction", "setting": "V79 cells; bleomycin 15 nM + SQAP 10 μM", "result": "about 20%"}, {"measurement": "survival fraction", "setting": "V79 cells; bleomycin 15 nM + SQAP 20 μM", "result": "about 2%"}, {"measurement": "survival fraction", "setting": "V79 cells; camptothecin 20 nM + SQAP 10 μM", "result": "about 12%"}, {"measurement": "survival fraction", "setting": "V79 cells; camptothecin 20 nM + SQAP 20 μM", "result": "about 3%"}, {"measurement": "survival fraction", "setting": "V79 cells; cisplatin 0.3 μg/mL + SQAP 10 μM (b65 prints 1011M)", "result": "about 8%"}, {"measurement": "survival fraction", "setting": "V79 cells; cisplatin 0.3 μg/mL + SQAP 20 μM (b65 prints 20 without unit)", "result": "about 5%"}, {"measurement": "survival fraction", "setting": "V79 cells; etoposide 30 nM + SQAP 10 μM", "result": "about 9%"}, {"measurement": "survival fraction", "setting": "V79 cells; etoposide 30 nM + SQAP 20 μM", "result": "about 8%"}, {"measurement": "survival fraction", "setting": "V79 cells; mitomycin C 500 nM + SQAP 10 μM", "result": "about 2%"}, {"measurement": "survival fraction", "setting": "V79 cells; mitomycin C 500 nM + SQAP 20 μM", "result": "about 1.8%"}, {"measurement": "survival fraction", "setting": "V79 cells; taxol 30 nM + SQAP 10 μM", "result": "about 2%"}, {"measurement": "survival fraction", "setting": "V79 cells; taxol 30 nM + SQAP 20 μM", "result": "about 2%"}, {"measurement": "survival fraction", "setting": "[1]; melanoma cells, doxorubicin 15 nM + SQAP 10 μM", "result": "about 10%"}, {"measurement": "survival fraction", "setting": "[1]; melanoma cells, doxorubicin 15 nM + SQAP 20 μM", "result": "about 3%"}, {"measurement": "survival fraction", "setting": "[1]; melanoma cells, doxorubicin 15 nM + SQAP 30 μM", "result": "about 0.4%"}, {"measurement": "survival fraction", "setting": "[1]; melanoma developing cells, SQAP 10 μM alone", "result": "about 90%"}, {"measurement": "survival fraction", "setting": "[1]; melanoma developing cells, SQAP 20 μM alone", "result": "about 85%"}, {"measurement": "survival fraction", "setting": "[1]; melanoma developing cells, SQAP 30 μM alone", "result": "about 60%"}, {"measurement": "survival fraction", "setting": "[1]; melanoma developing cells, doxorubicin 10 μM + SQAP 10 μM (as restated in Example 10)", "result": "about 10%"}, {"measurement": "survival fraction", "setting": "[1]; melanoma developing cells, doxorubicin 10 μM + SQAP 20 μM (as restated in Example 10)", "result": "about 3%"}, {"measurement": "survival fraction", "setting": "[1]; melanoma developing cells, doxorubicin 10 μM + SQAP 30 μM (as restated in Example 10)", "result": "about 0.4%"}, {"measurement": "survival fraction", "setting": "CHO cells; SQAP 30 μM alone", "result": "about 75%"}, {"measurement": "survival fraction", "setting": "CHO cells; mitomycin C 500 nM + SQAP 30 μM", "result": "about 1%"}, {"measurement": "survival fraction", "setting": "CHO cells; mitomycin C 500 μM + SQAP 30 μM (as restated in Example 10)", "result": "about 1%"}]}
